How the values were obtained:
U2OS cells [1] = assay: ATP release assays (quinacrine, luciferin-based); type: cell-based, human; conditions: 16 h post-treatment, intracellular and extracellular ATP
Protocol: In short, cells were labeled with 1 μM quinacrine in Krebs-Ringer solution (125 mM NaCl, 5 mM KCl, 1 mM MgSO4, 0.7 mM KH2PO4, 2 mM CaCl2, 6 mM glucose and 25 mM Hepes, pH 7.4) for 30 min at 37° C.
After incubation in quinacrine solution (as described above), cells were rinsed and resuspended in PBS containing 1 μg/ml PI. The samples were analyzed by means of a FACS Vantage (Becton Dickinson) and the data was statistically evaluated using the CellQuest Pro software (BD Biosciences).
(§1) After cell death induction, extracellular ATP was measured by luciferin-based ENLITEN ATP Assay (Promega, Madison, USA) following the manufacturer's instructions. Intracellular ATP was measured using an ATP Assay kit (Calbiochem, Darmstadt, Germany) based on luciferin-luciferase conversion following the manufacturer's instructions. For assessment of the chemoluminescent signal, the plates were read in a Fluostar luminometer (BMG Labtech).

U2OS cells [2] = assay: Analysis of surface exposed CRT (HaloTag ligand, anti-CRT immune staining)
MCA205 cells [3] = assay: In vivo anti-tumor vaccination with treated MCA205 cells (Example 3); conditions: s.c. injection, rechallenge with live tumor cells
Protocol: (F) MCA205 cells have been used for tumor vaccination in vivo. […] The mice have been rechallenged after 6 days with living cells and the tumor growth is depicted in the survival plot (n=10).
Tumor growth was evaluated for at least 50 days.

[4] = test system: U2OS cells stably expressing CRT-GFP; assay: CRT-GFP redistribution (granularity, nuclear shape) by automated microscopy; ICCB library screen; type: cell-based, human
Protocol: The data is depicted as mean±s.e.m. of quadruplicates from a representative experiment. (C) Immunofluorescene was conducted on CRT-GFP expressing cells by means of staining with anti-CRT antibody and subsequent confocal image acquisition. (D) CRT has been cloned in frame n-terminal to a HaloTag® sequence followed by a KDEL ER retention signal. (E) The impermeable HaloTag® ligand forms covalent bonds exclusively with surface exposed HaloTag®-CRT fusion protein, whereas intracellular HaloTag®-CRT remains undetected.
Compounds from the ICCB known bioactive compounds library have been tested for their capacity to induce CRT-exposure. […] The cells were incubated for 4 h and were acquired by means of automated microscopy. The data is depicted as dot plots and representative images (B).
After washing with PBS 4 viewfields per well were acquired by means of a BD pathway 855 automated microscope.

U2OS cells [5] = type: cell-based
Protocol: The data is depicted as representative images (A) and (B) normalized Bax-GFP granularity values.
The data represents mean±s.e.m. of quadruplicates from a representative experiment. […] 16 h after treatment, cell death was monitored by simultaneous staining with 3,3 dihexyloxacarbocyanine iodide (DiOC6(3)) and propidium iodide (PI), and the percentage of dying (DiOC6(3)^low PI^−, open bars) and dead (DiOC6(3)^low PI^+, closed bars) cells was determined by cytofluorometry.
Cell death was quantified by cytofluorometric analysis using a FACS Vantage (Becton Dickinson, Mountain View, USA) as described previously (REF). Thus, cells were stained with 40 nM 3,3 dihexyloxacarbocyanine iodide (DiOC6(3); Molecular Probes, Eugene, Oreg., USA) for 30 min at 37° C. and concomitantly with 1 μg/ml propidium iodide (PI; Sigma Aldrich) for 30 min at 37° C. to determine the mitochondrial transmembrane potential. Data were statistically evaluated using CellQuest Pro software (Becton Dickinson, Mountain View, USA).

eIF2α = assay: Immunoblotting of eIF2α / PERK phosphorylation; type: cell-based
Source text: (E) The phosphorylation status of eIF2α has been assessed by immunoblotting against the phosphoneoepitope Ser51 of eIF2α by means of a monoclonal antibody. A polyclonal antibody has been used to visualize whole eIF2α protein levels.

U2OS cells [6] = assay: CRT exposure by anti-CRT surface staining and FACS (Example 4); type: cell-based, human; conditions: for effect of antioxidant on CRT exposure upon Digoxin and Digitoxin treatment: NAC and GSH pretreated U2OS cells; for CRT exposure: dose dependent fashion, nanomolar range
Protocol: (D) Cardiac glycosides at 1 μM have been analysed for CRT exposure by means of anti-CRT surface staining and FACS quantification.
(F) U2OS cells treated with the indicated doses of Digoxin and Digitoxin were analyzed for CRT exposure by means of FACS quantified surface staining.

U2OS cells [7] = assay: ATP release ENLITEN assay (Example 4); type: cell-based, human; conditions: 15 h, dose dependent fashion, nanomolar range
Protocol: (H) ATP release was quantified by ENLITE 15 h after treatment in the supernatant of cells.
as §1

U2OS cells [8] = assay: HMGB1 release ELISA; type: cell-based, human; conditions: 24 h, dose dependent fashion, nanomolar range
Protocol: U2OS cells were seeded in 6 well plates 24 h before the experiment. The medium was changed to fresh DMEM before the treatment was applied. Supernatants were collected at 24 h post treatment, dying tumor cells were removed by centrifugation and supernatants were collected and shock frozen in liquid nitrogen. Quantification of HMGB1 in the collected supernatants was performed by enzyme-linked immunosorbent assay according to the manufacturer's instructions.

breast cancer = assay: Retrospective clinical study, digoxin during chemotherapy; type: in vivo, human
Protocol: (D) D1: Overall survival of 150 breast cancer patients. 50 digoxin cotreated patients are opposed by 100 non digoxin treated controls.
We retrospectively constructed a patient database using data obtained from Institut Gustave Roussy. The patients were divided into the digoxin receiving and into the control group. For each digoxin receiving patient two control patients with identical tumor grade and chemotherapeutic treatment have been chosen. All digoxin receiving patients were treated with digoxin while receiving chemotherapy. Age at diagnosis, pathological tumor size, lymph node involvement, tumor grade, hormone receptors, endocrine treatments, occurrence of events and follow-up were extracted from medical files and recorded in the database. After generation of the patient database statistical analyses were performed in a blinded fashion. Survival rates were estimated using the Kaplan-Meier method.

MCA205 cells [9] = assay: In vivo anti-tumor vaccination with MitoC / Digoxin treated MCA205 cells; parameters: species or system mice; conditions: for vaccination with cells treated with digoxin alone: single treatment
U2OS cells [10] = assay: US Drug library screen: CRT-GFP, HMGB1-GFP, quinacrine; conditions: 1 μM, 4 h / 24 h / 16 h
γδ T cells = assay: DC-tumor mixed lymphocyte cultures (IL-1β, IL-17A ELISA); type: cell-based, mouse; conditions: 20 μg/ml IL-1RA
Protocol: (D) DX-treated MCA205 loaded DC/γδ T cell cross-talk was also performed in the presence of 20 μg/ml IL-1RA (Amgen) or anti-IL-23 or IL-23R neutralizing antibodies or 10 μg/ml IL-18BP or 20 μM CH-223191. IL-1β and IL-17A release was measured at 48 hrs in ELISA.
DC were propagated in Iscoves's medium (Sigma Aldrich) supplemented with J558 supernatant, 100 UI/ml Penicillin, 100 μg/ml Streptomycin, 2 mM L-glutamine, 50 μM 2-mercaptoethanol (Sigma), 10% heat-inactivated and filtered, 10% FCS and 40 ng/ml GM-CSF. DC were used between day 8 and 12 when the proportion of CD11c/MHC class II+ cells was >80%. In mixed cocultures, DC were seeded at 10^5/100 μl/well in U bottom 96 well plates. Tumor cells were treated with 25 μM DX or 2 μM MTX for 16 hrs, washed in PBS and added into these wells at 7.5×10^5/100 μl/well. 2×10^4/50 μl γδ T cells were added into the wells 12 hrs later. Supernatant was collected 48 hrs later.

LN resident γδ T cells = assay: Cytokine stimulation of LN-derived γδ T cells (IL-17); type: cell-based, mouse
Protocol: (A-B) Cocultures of naïve LNs derived γδ T (A-B) or TCR δ^−T (A) cells in the presence of recombinant mouse cytokines (1 μg/ml IL-1β or/and IL-23, 5 μg/ml TGF-β, 10 μg/ml IL-6) (A) with or without TCR cross-linking with anti-CD3ε mAb pre-coated plates (5 μg/ml, Clone 145-2C11) (B).
Naïve C57Bl/6 mice aged between 8-10 weeks were sacrificed and the skin-draining lymph nodes (LNs) including inguinal, popliteal, superficial cervical, axillary and brachial LNs were collected. LNs were squeezed with tweezers gently in digesting buffer, kept at 37° C. for 20 min and then pass through […] cell strainer to get single cell suspension. Dead cells were removed using Dead Cell Removal Kit (Miltenyi Biotec) before purifying γδ T cells with TCRγ/δ^+ T Cell Isolation Kit (Miltenyi Biotec). An autoMACS™ Separator was used with the recommended programs. Purity of this isolation normally reached 95%. The TCR δ^− CD3^+ cells fraction was also collected from the final separation step and was called ‘non γδ T’ cells for some experiments. Day 2 after DX or PBS treatment, 2.5×10^5 cells were injected directly into the tumor with insulin syringes in adoptive transfer setting.

MCA205 cells [11] = conditions: Martins I et al, Oncogene 2010; cited from earlier work

[NH2][Pt]([NH2])([Cl])[Cl] [CDDP, cisplatin]
ATP release (U2OS cells [1]): induced ATP release
surface exposure of CRT-HaloTag (U2OS cells [2]; cell-impermeable HaloTag ligand, microscopy and cytofluorometry): failed to induce the surface exposure
surface immunofluorescence staining of CRT (U2OS cells [2]; non-permeabilized CRT-GFP cells): no immunodetectable CRT was found on the surface
protective anticancer immune response after vaccination with drug-treated MCA205 cells (MCA205 cells [3]): inefficient in inducing a protective anticancer immune response
CRT-GFP granularity (relocation to peripheral granular distribution) ([4]; 1 μM MTX, 150 μM CDDP, 300 μM OXP): not after treatment with CDDP
chromatin condensation (nuclear apoptosis) ([4]; as efficiently as MTX or OXP): able to induce chromatin condensation
IC50 (U2OS cells [5]; short-term experiments, loss of the mitochondrial transmembrane potential ΔΨm, read-out: IC50, imminent cell death): ~150 µM
mitochondrial perturbations (ΔΨm dissipation, Bax-GFP relocation) (U2OS cells [5]; used at their IC50): induced similar mitochondrial perturbations
eIF2α phosphorylation on serine 51 (eIF2α; phospho-neoepitope-specific antibody): unable to activate
activating phosphorylation of PERK (eIF2α; shortly after treatment): not CDDP

N[C@@H](CCC(=O)N[C@@H](CS)C(=O)NCC(=O)O)C(=O)O [GSH]
effect of antioxidant on CRT exposure upon Digoxin and Digitoxin treatment (U2OS cells [6]): significantly diminished CRT exposure

CC(=O)N[C@@H](CS)C(=O)O [NAC]
effect of antioxidant on CRT exposure upon Digoxin and Digitoxin treatment (U2OS cells [6]): significantly diminished CRT exposure

C[C@H]1O[C@@H](O[C@H]2[C@@H](O)C[C@H](O[C@H]3[C@@H](O)C[C@H](O[C@H]4CC[C@@]5(C)[C@H](CC[C@@H]6[C@@H]5CC[C@]5(C)[C@@H](C7=CC(=O)OC7)CC[C@]65O)C4)O[C@@H]3C)O[C@@H]2C)C[C@H](O)[C@@H]1O [digitoxin]
ATP release (U2OS cells [7]): ATP release
HMGB1 release (U2OS cells [8]): HMGB1 release
CRT exposure (U2OS cells [6]): induce CRT exposure

C[C@H]1O[C@@H](O[C@H]2[C@@H](O)C[C@H](O[C@H]3[C@@H](O)C[C@H](O[C@H]4CC[C@@]5(C)[C@H](CC[C@@H]6[C@@H]5C[C@@H](O)[C@]5(C)[C@@H](C7=CC(=O)OC7)CC[C@]65O)C4)O[C@@H]3C)O[C@@H]2C)C[C@H](O)[C@@H]1O [digoxin]
overall survival effect of digoxin, anthracyclin based chemotherapy subgroup (breast cancer; 20 digoxin cotreated vs 40 controls): completely disappears
overall survival of patients that received digoxin during chemotherapy (breast cancer; 50 digoxin cotreated vs 100 controls): increased overall survival
ATP release (U2OS cells [7]): ATP release
vaccinating effect, MCA cells cotreated with digoxin and MitoC (MCA205 cells [9]; 20 μM MitoC with 30 μM Digoxin O/N, immunocompetent mice, rechallenge after 6 days): kept living cells of the same kind from forming a tumor
vaccination with cells treated with digoxin alone (MCA205 cells [9]): led to tumor formation at the vaccination site
vaccination with cells treated with digoxin alone (MCA205 cells [9]; listed as Digoxin): did not preclude the living cells from forming a tumor after rechallenge
HMGB1 release (U2OS cells [8]): HMGB1 release
CRT exposure (U2OS cells [6]): induce CRT exposure

COc1cccc2c1C(=O)c1c(O)c3c(c(O)c1C2=O)C[C@@](O)(C(=O)CO)C[C@@H]3O[C@H]1C[C@H](N)[C@@H](O)[C@H](C)O1 [epirubicin]
rank in screen for exposing CRT and emitting HMGB1 and ATP (U2OS cells [10]): most potent in exposing CRT, and emitting HMGB1 and ATP

IL-1RA: IL-1R1/IL-1β antagonist (Amgen)
IL-1β production in DC/γδ T cell co-culture (γδ T cells): not modified
DC/γδ T cell cross-talk (IL-17 production) in the presence of dying cells (γδ T cells; DX-treated MCA205 loaded DC, 48 hrs): entirely abrogated the DC/γδ T cell cross-talk

TGF-β
IL-17 production by LN-resident γδ T cells in response to recombinant cytokines (LN resident γδ T cells): failed to produce IL-17

tunicamycin
immunogenic cell death when combined with cisplatin (MCA205 cells [11]): could induce immunogenic cell death when combined with cisplatin

B1: IL-6: recombinant mouse cytokine (protein, UniProt P08505 25-211, looked up)
Interleukin-6: FPTSQVRRGDFTEDTTPNRPVYTTSQVGGLITHVLWEIVEMRKELCNGNSDCMNNDDALAENNLKLPEIQRNDGCYQTGYNQEICLLKISSGLLEYHSYLEYMKNNLKDNKKDKARVLQRDTETLIHIFNQEVKDLHKIVLPTPISNALLTDKLESQKEWLRTKTIQFILKSLEEFLKVTLRSTRQT
IL-17 production by LN-resident γδ T cells in response to recombinant cytokines (LN resident γδ T cells): failed to produce IL-17

Reference: US8865653B2, “Method of treatment for immunogenic treatment resistant cancer” (Institut Gustave Roussy, priority 2010, dated 2014)
